This note sets out measurements from US4690926A, “Boxazomycin A and B, new antibiotics containing benzoxazole nucleus” (Bristol-Myers Company, priority 1986, dated 1987).

≈ marks a conversion by molar mass, not a printed value.

The experiment has as its system S. epidermidis A22547. Format: cell-based. Particulars: Staphylococcus epidermidis, Nutrient agar (Eiken), kanamycin-resistant.
`Cc1ncc(O)c(-c2nc3c(C(N)=O)c(O)cc(C)c3o2)n1` [Boxazomycin B] displayed an MIC of 0.2 µg/mL (≈ 0.666 µM).

Compound `Cc1cc(O)c(C(N)=O)c2nc(-c3nc(CO)ncc3O)oc12` [Boxazomycin A] gave an MIC of 0.4 µg/mL (≈ 1.26 µM).

Compound `NC[C@H]1O[C@H](O[C@H]2[C@H](O)[C@@H](O[C@H]3O[C@H](CO)[C@@H](O)[C@H](N)[C@H]3O)[C@H](N)C[C@@H]2N)[C@H](O)[C@@H](O)[C@@H]1O` [Kanamycin, kanamycin, reference compound] showed an MIC of 25 µg/mL (≈ 51.6 µM). Against the preceding compound, the MIC is about 62-fold higher.
